# Data as given in US20060069132A1, “Azolecarboxamide herbicides” (priority 2004, published 2006).
# Key:
# ducksalad = assay: Test B flooded paddy test; type: in vivo, Heteranthera limosa; conditions: scale 0 to 100 (0 no effect, 100 complete control)
# How it was run: (§1)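 Postemergence plants were sprayed with formulated test chemicals at 2 to 18 cm height (1- to 4-leaf stage); paddy species were grown to the 2-leaf stage. After 13 to 15 days in a greenhouse, injury was rated visually against untreated controls on a 0–100 scale (0 = no effect, 100 = complete control).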
# [1] = tested on: small flower umbrella sedge; assay: Test B flooded paddy test; type: in vivo, Cyperus difformis; conditions: scale 0 to 100 (0 no effect, 100 complete control)
# How it was run: as §1
# large crabgrass [2] = assay: Test A pre-/postemergence herbicide test; type: in vivo, Digitaria sanguinalis
# How it was run: (§2)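 Greenhouse injury scoring (0–100, complete control = 100) at approximately ten days follows simultaneous pre- and postemergence application. Soil received a directed spray after seeding; seedlings of 2–10 cm at the one- to two-leaf stage were sprayed to runoff.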
# giant foxtail [3] = assay: Test A pre-/postemergence herbicide test; type: in vivo, Setaria faberi
# How it was run: as §2
# morningglory [4] = assay: Test A pre-/postemergence herbicide test; type: in vivo, Ipomoea spp.
# How it was run: as §2
# barnyardgrass [5] = assay: Test B flooded paddy test; type: in vivo, Echinochloa crus-galli; conditions: scale 0 to 100 (0 no effect, 100 complete control)
# How it was run: as §1
# barnyardgrass [6] = assay: Test A pre-/postemergence herbicide test; type: in vivo, Echinochloa crus-galli
# How it was run: as §2
# redroot pigweed = assay: Test A pre-/postemergence herbicide test; type: in vivo, Amaranthus retroflexus
# How it was run: as §2
# rice = assay: Test B flooded paddy test; type: in vivo, Oryza sativa; conditions: scale 0 to 100 (0 no effect, 100 complete control)
# How it was run: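 After treating 2-leaf paddy plants or 2–18 cm postemergence plants (1 to 4 leaves) with formulated chemical, researchers kept them in a greenhouse for 13–15 days. Effects were judged visually versus controls: 0 indicates none, 100 total control.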
# velvetleaf [7] = assay: Test A pre-/postemergence herbicide test; type: in vivo, Abutilon theophrasti
# How it was run: as §2
# barnyardgrass [8] = assay: Test B pre-/postemergence herbicide test; type: in vivo, Echinochloa crus-galli
# How it was run: (§3)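 Seeds were planted and treated preemergence with compounds formulated in a non-phytotoxic solvent mixture containing surfactant, while plants at the 1- to 4-leaf stage (2 to 18 cm) received postemergence sprays. Flooded paddy plants were grown to the 2-leaf stage. After 13 to 15 days in a greenhouse, injury was visually rated 0–100 against untreated controls.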
# corn = assay: Test B pre-/postemergence herbicide test; type: in vivo, Zea mays; conditions: Preemergence, 500 g ai/ha; scale 0 to 100
# How it was run: (§4)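 Flooded paddy rice and barnyardgrass were treated at the 2-leaf stage; upland plantings received compound either on sown seed or on 1- to 4-leaf seedlings. All were kept 13–15 days in a greenhouse and scored visually, 0–100, relative to untreated plants.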
# giant foxtail [9] = assay: Test B pre-/postemergence herbicide test; type: in vivo, Setaria faberi
# How it was run: as §4
# large crabgrass [10] = assay: Test B pre-/postemergence herbicide test; type: in vivo, Digitaria sanguinalis
# How it was run: as §4
# blackgrass = assay: Test B postemergence herbicide test; type: in vivo, Alopecurus myosuroides; conditions: Postemergence, scale 0 (no effect) to 100 (complete control)
# How it was run: as §1
# wheat = assay: Test B postemergence herbicide test; type: in vivo, Triticum aestivum; conditions: Postemergence, 500 g ai/ha; visual rating after 13 to 15 days, scale 0 (no effect) to 100 (complete control)
# How it was run: (§5)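 Greenhouse test; postemergence application to plants at 1–4 leaves (2–18 cm); paddy species at 2 leaves; evaluated visually vs controls at 13–15 days; scale 0–100 (100 = complete control).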
# pigweed = assay: Test B pre-/postemergence herbicide test; type: in vivo, Amaranthus retroflexus
# How it was run: as §4
# wild oat = assay: Test B postemergence herbicide test; type: in vivo, Avena fatua; conditions: Postemergence, scale 0 (no effect) to 100 (complete control)
# How it was run: as §5
# morningglory [11] = assay: Test B pre-/postemergence herbicide test; type: in vivo, Ipomoea coccinea; conditions: Preemergence, 500 g ai/ha; scale 0 to 100
# How it was run: as §3
# cocklebur = assay: Test B pre-/postemergence herbicide test; type: in vivo, Xanthium strumarium
# How it was run: as §3
# Surinam grass = assay: Test B pre-/postemergence herbicide test; type: in vivo, Urochloa decumbens
# How it was run: as §4
# velvetleaf [12] = assay: Test B pre-/postemergence herbicide test; type: in vivo, Abutilon theophrasti
# How it was run: as §4
# lambsquarters = assay: Test B pre-/postemergence herbicide test; type: in vivo, Chenopodium album
# How it was run: as §4
# [13] = Postemergence, 125 g ai/ha, 0 to 100 scale, 0 no effect, 100 complete control
# [14] = Postemergence, 500 g ai/ha, 0 to 100 scale, 0 no effect, 100 complete control
# [15] = preemergence, 125 g ai/ha, visual injury, 0 to 100 scale (0 no effect, 100 complete control)
# [16] = preemergence, 500 g ai/ha, visual injury, 0 to 100 scale (0 no effect, 100 complete control)
# [17] = Postemergence, 125 g ai/ha, scale 0 (no effect) to 100 (complete control)
# [18] = Postemergence, 500 g ai/ha, visual rating after 13 to 15 days, scale 0 (no effect) to 100 (complete control)
# [19] = Preemergence, 500 g ai/ha, scale 0 to 100
# [20] = preemergence, 125 g ai/ha, 0 to 100 scale, 0 is no effect, 100 is complete control
# [21] = 1000 g ai/ha, visual rating, 13 to 15 days
# [22] = Postemergence, 2000 g ai/ha, 0 to 100 scale, 0 no effect, 100 complete control
# [23] = Preemergence, 500 g ai/ha, visual rating, 0 to 100 scale (0 no effect, 100 complete control)
# [24] = Preemergence, 2000 g ai/ha, 0 to 100 scale, 0 no effect, 100 complete control
# [25] = 500 g ai/ha, visual rating after 13 to 15 days
structure (smiles),measurement,setting,value
CCn1nc(C(C)(C)C)nc1C(=O)Nc1cc(C(=O)N(C)C)ccc1F [Compound 450],Ducksalad plant response rating,ducksalad; 125 g ai/ha,40
same,Ducksalad plant response rating,ducksalad; 500 g ai/ha,80
same,"Sedge, Umbrella plant response rating",[1]; 125 g ai/ha,60
same,"Sedge, Umbrella plant response rating",[1]; 500 g ai/ha,80
same,"Crabgrass, Large plant response rating",large crabgrass [2]; [13],15
same,"Crabgrass, Large plant response rating",large crabgrass [2]; [14],70
same,"Crabgrass, Large plant response rating",large crabgrass [2]; [15],35
same,"Crabgrass, Large plant response rating",large crabgrass [2]; [16],70
same,"Foxtail, Giant plant response rating",giant foxtail [3]; [13],50
same,"Foxtail, Giant plant response rating",giant foxtail [3]; [14],75
same,"Foxtail, Giant plant response rating",giant foxtail [3]; [15],70
same,"Foxtail, Giant plant response rating",giant foxtail [3]; [16],95
same,Morningglory plant response rating,morningglory [4]; [13],25
same,Morningglory plant response rating,morningglory [4]; [14],30
same,Morningglory plant response rating,morningglory [4]; [15],0
same,Morningglory plant response rating,morningglory [4]; [16],15
same,Barnyardgrass plant response rating,barnyardgrass [5]; 125 g ai/ha,50
same,Barnyardgrass plant response rating,barnyardgrass [5]; 500 g ai/ha,80
same,Barnyardgrass plant response rating,barnyardgrass [6]; [13],60
same,Barnyardgrass plant response rating,barnyardgrass [6]; [14],80
same,Barnyardgrass plant response rating,barnyardgrass [6]; [15],60
same,Barnyardgrass plant response rating,barnyardgrass [6]; [16],95
same,Pigweed plant response rating,redroot pigweed; [13],20
same,Pigweed plant response rating,redroot pigweed; [14],55
same,Pigweed plant response rating,redroot pigweed; [15],25
same,Pigweed plant response rating,redroot pigweed; [16],95
same,Rice plant response rating,rice; 125 g ai/ha,60
same,Rice plant response rating,rice; 500 g ai/ha,80
same,Velvetleaf plant response rating,velvetleaf [7]; [13],30
same,Velvetleaf plant response rating,velvetleaf [7]; [14],60
same,Velvetleaf plant response rating,velvetleaf [7]; [15],0
same,Velvetleaf plant response rating,velvetleaf [7]; [16],35
CCCCn1nc(C(C)(C)C)cc1C(=O)Nc1cccc(C(=O)N(CC)CC)c1 [Compound 40],Barnyardgrass plant response rating,barnyardgrass [8]; [17],10
same,"Plant response rating, Barnyardgrass",barnyardgrass [8]; [18],10
same,Barnyardgrass plant response rating,barnyardgrass [8]; [19],40
same,Corn plant response rating,corn,0
same,"Foxtail, Giant plant response rating",giant foxtail [9]; [17],0
same,"Plant response rating, Foxtail, Giant",giant foxtail [9]; [18],20
same,"Foxtail, Giant plant response rating",giant foxtail [9]; [19],10
same,"Plant response rating, Foxtail, Giant",giant foxtail [9]; [20],0
same,"Crabgrass, Large plant response rating",large crabgrass [10]; [17],10
same,"Plant response rating, Crabgrass, Large",large crabgrass [10]; [18],20
same,"Crabgrass, Large plant response rating",large crabgrass [10]; [19],70
same,Ducksalad plant response rating,ducksalad; [21],0
same,"Sedge, Umbrella plant response rating",[1]; [21],30
same,"Plant response rating, Crabgrass, Large",large crabgrass [2]; [14],15
same,"Plant response rating, Crabgrass, Large",large crabgrass [2]; [22],0
same,"Crabgrass, Large plant response rating",large crabgrass [2]; [23],5
same,"Crabgrass, Large plant response rating",large crabgrass [2]; [24],15
same,"Plant response rating, Foxtail, Giant",giant foxtail [3]; [14],0
same,"Plant response rating, Foxtail, Giant",giant foxtail [3]; [22],0
same,"Foxtail, Giant plant response rating",giant foxtail [3]; [23],0
same,"Foxtail, Giant plant response rating",giant foxtail [3]; [24],5
same,"Plant response rating, Morningglory",morningglory [4]; [14],0
same,"Plant response rating, Morningglory",morningglory [4]; [22],0
same,Morningglory plant response rating,morningglory [4]; [23],5
same,Morningglory plant response rating,morningglory [4]; [24],10
same,Barnyardgrass plant response rating,barnyardgrass [5]; [21],0
same,Blackgrass plant response rating,blackgrass; 125 g ai/ha,10
same,"Plant response rating, Blackgrass",blackgrass; [25],20
same,"Plant response rating, Wheat",wheat,30
same,"Plant response rating, Pigweed",pigweed; [18],60
same,Pigweed plant response rating,pigweed; [19],60
same,"Plant response rating, Pigweed",pigweed; [20],30
same,"Oat, Wild plant response rating",wild oat; 125 g ai/ha,0
same,"Plant response rating, Oat, Wild",wild oat; [25],10
same,Morningglory plant response rating,morningglory [11],10
same,"Plant response rating, Barnyardgrass",barnyardgrass [6]; [14],0
same,"Plant response rating, Barnyardgrass",barnyardgrass [6]; [22],0
same,Barnyardgrass plant response rating,barnyardgrass [6]; [23],0
same,Barnyardgrass plant response rating,barnyardgrass [6]; [24],15
same,Cocklebur plant response rating,cocklebur; [17],10
same,"Plant response rating, Cocklebur",cocklebur; [18],50
same,Cocklebur plant response rating,cocklebur; [19],0
same,"Plant response rating, Surinam Grass",Surinam grass; [18],20
same,Surinam Grass plant response rating,Surinam grass; [19],10
same,"Plant response rating, Surinam Grass",Surinam grass; [20],0
same,"Plant response rating, Velvetleaf",velvetleaf [12]; [18],20
same,Velvetleaf plant response rating,velvetleaf [12]; [19],10
same,"Plant response rating, Velvetleaf",velvetleaf [12]; [20],0
same,"Plant response rating, Pigweed",redroot pigweed; [14],0
same,"Plant response rating, Pigweed",redroot pigweed; [22],0
same,Pigweed plant response rating,redroot pigweed; [23],0
same,Pigweed plant response rating,redroot pigweed; [24],15
same,Lambsquarters plant response rating,lambsquarters; [17],40
same,"Plant response rating, Lambsquarters",lambsquarters; [18],70
same,Lambsquarters plant response rating,lambsquarters; [19],80
same,"Plant response rating, Lambsquarters",lambsquarters; [20],40
same,Rice plant response rating,rice; [21],0
same,"Plant response rating, Velvetleaf",velvetleaf [7]; [14],0
same,"Plant response rating, Velvetleaf",velvetleaf [7]; [22],0
same,Velvetleaf plant response rating,velvetleaf [7]; [23],5
same,Velvetleaf plant response rating,velvetleaf [7]; [24],15
